Experiments:
U87MC cells = test: Cytotoxicity analysis (MTT); assay type: cell-based; settings: Homo sapiens, U-87 MG, U87 cells, 48 hours
Protocol: U87 cells were inoculated in a 96-well culture plate with a density of 1×10^4 cells/well, and cultured in a 37° C., 5% CO2 incubator for 1 day. […] Next, the old medium was removed from the culture plate and the culture plate was washed with medium three times. After the medium was removed from the culture plate, 100 μL of 0.5 mg/mL MTT reagent was added to the plate, and the culture plate was incubated at 37° C. for 4 hours. Then, the old medium was removed and 100 μL of 0.1 N HCl/isopropanol was added to the culture plate to dissolve the precipitate. Finally, the culture plate was placed in a ELISA reader to determine the absorbance at wavelength 570 nm, and the absorbance was converted into cell viability based on the following formula: Cell viability (%)=Intensity of sample/Intensity of control×100%.

[1] = Concentration of Pt in rat plasma by ICP-AES, pharmacokinetic parameters; assay type: in vivo, rats; settings: 0.5 mg/rat
Protocol: The rats were grouped, and 0.5 mg/rat oxaliplatin, Formulations PtHC101, PtHC305 and PtHC603, were respectively administered. After that, at different time points the blood samples were sampled from the rats, the concentrations of Pt in the plasma were analyzed by inductively coupled plasma with atomic emission spectroscopy (ICP-AES), and the original drug concentration in blood (CO), half-life (T ½), area under curve (AUC), volume of distribution (Vz), and clearance (Cl) of each formulation were calculated.

[2] = system: HT-29 cells, human colon adenocarcinoma cell line; test: Tumor growth inhibition in nude mice implanted with HT-29 cells; assay type: in vivo; settings: 2 mg Pt/kg, tail vein, twice a week, 6 doses; day 14 to day 42
Protocol: HT-29 cells, human colon adenocarcinoma cell line, were implanted into the backs of nude mice. After the size of the tumor reached 100-200 mm^3, the mice were administered hyaluronic acid derivative/DACHPt complex nano-carriers formed by Formulation PtHC604 (2 mg Pt/kg), oxaliplatin (2 mg Pt/kg) or 10% sucrose through tail vein injections twice a week, for a total of 6 doses. The size changes of the tumors were measured, regularly, and tumor growth inhibition (TGI) rate was calculated. Calculation formula is as follows: Tumor growth inhibition (TGI) (%)=[1−(Δ Tumor volume for drug treatment group/Δ Tumor volume for vehicle treatment group)]×100

Compound	IC50 (U87MC cells)	AUClast [1]	C0 [1]	Cl_pred [1]	HL_Lambda_z [1]	Vz_pred [1]	tumor growth inhibition (TGI) rate [2]
COc1cccc2c1C(=O)c1c(O)c3c(c(O)c1C2=O)C[C@@](O)(C(=O)CO)C[C@@H]3O[C@H]1C[C@H](N)[C@H](O)[C@H](C)O1 [Doxorubicin, doxorubicin]	100 nM	–	–	–	–	–	–
O=C1[O][Pt]2([NH][C@@H]3CCCC[C@H]3[NH]2)[O]C1=O [Oxaliplatin, oxaliplatin]	–	4202.6 ± 1280.2 ng·h/mL	6317.9 ± 4430.9 ng/mL	3.695 ± 1.13 mL/min/kg	8.2 ± 1.1 h	2.6208 ± 0.8685 L/kg	42±8%
